The results in this text go back to article doi:10.1101/2024.08.19.608619, “Discovery of potent SARS-CoV-2 nsp3 macrodomain inhibitors uncovers lack of translation to cellular antiviral response” (bioRxiv, 2024).

One data set in a line: in vitro. Particulars: human, hela-ace2 cells, 50.0.
The subject of data set [1] is SARS-CoV-2, isolate USA-WA1/2020. The data set can be described thus: microbe, parasite or virus in culture. It counts as cell-based. Particulars: HeLa-ACE2 SARS-CoV-2 antiviral effect without P-gp inhibitor; for perc_max_measured: maximum measured response of dose series; for perc_min_measured: minimum measured response of dose series; for EC50: read-out: ec50; for EC90: read-out: ec90.

A short description of data set [2]: Permeability Papp (AB) MDR1/MDCKII. Particulars: for papp_a_to_b_mean: A to B.
Another data set has as its system HeLa-ACE2 cells. Particulars: for perc_max_measured: highest measured response of the dose series; for perc_min_measured: lowest measured response of the dose series.
Data set [3] can be described thus: Hepatic microsomal stability, HLM. It counts as in vitro ADME, human. Particulars: In vitro human liver microsomal stability; for perc_remaining_no_cofactor: no cofactor.
Data set [4] can be described thus: In vitro kinetic solubility. Particulars: In vitro kinetic solubility, ph 7.4.
A short description of a further data set: LogD. Particulars: pH 7.4; In vitro LogD.
Data set [5] can be described thus: Hepatic microsomal stability, MLM. It counts as in vitro ADME.
Where [6] appears, read: In vitro MDR1-MDCKII permeability, no inhibitor.
The mark [7] stands for this setting: In vitro MDR1-MDCKII permeability, recovery A to B, no inhibitor.
Where [8] appears, read: protocol HeLa-ACE2 cytotoxicity.
The mark [9] stands for this setting: In vitro mouse liver microsomal stability.
The mark [10] stands for this setting: In vitro mouse liver microsomal stability, no cofactor.
Where [11] appears, read: In vitro MDR1-MDCKII permeability, mean.
The mark [12] stands for this setting: In vitro MDR1-MDCKII permeability, recovery A to B, mean.
The mark [13] stands for this setting: In vitro mouse liver microsomal stability; no cofactor.

Converted amounts (≈) assume the structure as drawn. “And” between values parts separate entries of the source, which are not always exact repeats. Equal entries are not always repeated. Where two headings read alike, the source gives them in different places.

In the case of `CNC(=O)c1cc2c(N[C@@H](c3ccc4c(c3)S(=O)(=O)CCC4)C(C)C)ncnc2[nH]1` (single isomer, unassigned) [ASAP-0012346], the 50% cytotoxic concentration (CC50) at 24 h in the data set “in vitro” was above 20 µM. Moreover, in data set [1], the perc_max_measured turned out to be 104.869%, the perc_min_measured was 90.681%, the 50% effective concentration (EC50) is above 20 µM and the EC90 was above 20 µM. The compound also had a papp_b_to_a_mean in data set [2] (In vitro MDR1-MDCKII permeability, B to A, no inhibitor) of 0.72 ×10⁻⁶ cm/s. Further, the efflux_ratio in data set [2] (setting [6]) was 21.1. In data set [2] (setting [7]), the perc_recovery_a_to_b_mean is 74.6% and 66.3%. The compound also yielded a perc_recovery_b_to_a_mean in data set [2] (In vitro MDR1-MDCKII permeability, recovery B to A, no inhibitor) of 68.8%. Also, the perc_recovery_a_to_b_inhibitor_mean in data set [2] (MDR1-MDCKII, recovery A to B, with inhibitor Verapamil) stood at 98.1%. In addition, the perc_recovery_b_to_a_inhibitor_mean in data set [2] (MDR1-MDCKII, recovery B to A, with inhibitor Verapamil) came to 86.6%. In the data set with HeLa-ACE2 cells (setting [8]), this compound came in with a CC50 above 20 µM, a cc10 above 20.0 µM, a perc_max_measured of 108.34% and a perc_min_measured of 94.319%. In data set [3], the clint worked out at 682.0 µL/min/mg, the perc_remaining was 0.0%, the t_half came out at 2.4 min and the perc_remaining_no_cofactor is listed as 94.0%. In addition, the solubility_mean in data set [4] was found to be 397 µM (≈ 170 µg/mL). The same compound displayed a logd in “LogD” of 2.4. Also, in data set [5] (setting [9]), the clint amounted to 23.0 µL/min/mg, the perc_remaining is on record as 69.0% and the t_half is reported as 71.6 min. For the same compound, the perc_remaining_no_cofactor in data set [5] (setting [10]) turned out to be 97.0%.
Take `CC(C)[C@@H](Nc1ncnc2[nH]c(-c3cnn(CCC(N)=O)c3)cc12)c1ccc2c(c1)OCCO2` [ASAP-0008482]: the CC50 at 24 h in the data set “in vitro” was above 20 µM. In data set [1], the perc_max_measured was 121.913% and 112.19%; the perc_min_measured is 97.771% and 96.19%; the EC50 is above 20 µM; the EC90 is above 20 µM. This compound also had a papp_a_to_b_mean in data set [2] (setting [11]) of 1.46 ×10⁻⁶ cm/s. For the same compound, the perc_recovery_a_to_b_mean in data set [2] (setting [12]) is on record as 88.9%. Besides, in the data set on HeLa-ACE2 cells (setting [8]), the 50% cytotoxic concentration (CC50) is above 20 µM; the perc_max_measured was 111.916% and 92.58%; the perc_min_measured was 82.711% and 77.006%. For the same compound, in data set [3], the clint worked out at 99.0 µL/min/mg, the perc_remaining was 19.0%, the t_half came out at 16.9 min and the perc_remaining_no_cofactor was determined as 108.0%. In data set [4], this compound came in with a solubility_mean of 236 µM (≈ 109 µg/mL). This compound also registered a logd in “LogD” of 3.0. Also, in data set [5] (setting [9]), the clint was determined as 62.0 µL/min/mg, the perc_remaining stood at 36.0% and the t_half was 27.1 min. In data set [5] (setting [13]), the perc_remaining_no_cofactor amounted to 106.0%.
On to `CC(C)[C@@H](Nc1ncnc2[nH]ccc12)c1ccc2c(c1)S(=O)(=O)CCO2` [ASAP-0012318], for which the CC50 at 24 h in “in vitro” was above 20 µM. In addition, in data set [1], the perc_max_measured is recorded as 99.283%, the perc_min_measured was found to be 83.757%, the EC50 was above 20 µM and the EC90 is above 20 µM. The compound further displayed a papp_a_to_b_mean in data set [2] (setting [6]) of 4.4 ×10⁻⁶ cm/s. The perc_recovery_a_to_b_mean in data set [2] (setting [7]) amounted to 69.0%. In the data set on HeLa-ACE2 cells (HeLa-ACE2 cytotoxicity), this compound had a half-maximal cytotoxic concentration (CC50) above 20 µM, a cc10 above 20.0 µM, a perc_max_measured of 106.826% and a perc_min_measured of 90.526%. In data set [3], the clint is 18.0 µL/min/mg, the perc_remaining stood at 74.0%, the t_half is listed as 91.3 min and the perc_remaining_no_cofactor was found to be 92.0%. Further, the solubility_mean in data set [4] is 372 µM (≈ 139 µg/mL). Moreover, the logd in the data set “LogD” is listed as 2.6. Further, in data set [5] (setting [9]), the clint is 69.0 µL/min/mg, the perc_remaining is 33.0% and the t_half turned out to be 24.2 min. In data set [5] (setting [10]), the perc_remaining_no_cofactor was determined as 111.0%.
Turning to `CC(C)[C@@H](Nc1ncnc2[nH]c(-c3cnn(CC(=O)N(C)C)c3)cc12)c1ccc2c(c1)S(=O)(=O)CCC2` (racemic) [ASAP-0008668], the CC50 at 24 h in the data set “in vitro” is above 20 µM. For the same compound, in data set [1], the perc_max_measured was 98.615%, the perc_min_measured is given as 84.991%, the EC50 is above 20 µM and the EC90 is above 20 µM. The papp_a_to_b_mean in data set [2] (setting [11]) turned out to be 0.67 ×10⁻⁶ cm/s. This compound showed a perc_recovery_a_to_b_mean in data set [2] (setting [12]) of 85.0%. For the same compound, in the data set on HeLa-ACE2 cells (HeLa-ACE2 cytotoxicity), the CC50 was above 20 µM, the cc10 is above 20.0 µM, the perc_max_measured is on record as 99.837% and the perc_min_measured stood at 68.704%. Moreover, in data set [3], the clint worked out at 106.0 µL/min/mg, the perc_remaining is reported as 18.0%, the t_half is listed as 15.8 min and the perc_remaining_no_cofactor is recorded as 92.0%. In data set [4], this compound displayed a solubility_mean of 38 µM (≈ 19.8 µg/mL). The logd in “LogD” worked out at 2.1. In addition, in data set [5] (setting [9]), the clint was found to be 68.0 µL/min/mg, the perc_remaining was 31.0% and the t_half amounted to 24.6 min. The perc_remaining_no_cofactor in data set [5] (setting [13]) turned out to be 92.0%.
`C[C@@H](C(=O)O)[C@H](NC(=O)c1ncnc2[nH]ccc12)c1ccc(Br)cc1` [ASAP-0014726] displayed a CC50 at 24 h in “in vitro” above 20 µM. In addition, in data set [1], the perc_max_measured is listed as 129.968% and the perc_min_measured turned out to be 44.709%. In the data set with HeLa-ACE2 cells (HeLa-ACE2 cytotoxicity), this compound yielded a CC50 above 20 µM, a cc10 above 20.0 µM, a perc_max_measured of 106.212% and a perc_min_measured of 72.067%.
For `CC(C)[C@@H](Nc1ncnc2[nH]c(-c3cnn(C)c3)cc12)c1ccc2c(c1)S(=O)(=O)NCC2` [ASAP-0011192], the CC50 at 24 h in the data set “in vitro” is above 20 µM. Further, in data set [1], the perc_max_measured came out at 105.419%, the perc_min_measured worked out at 69.993%, the concentration for a half-maximal effect (EC50) is above 20 µM and the concentration for an effect of 90% (EC90) was above 20 µM. In data set [2] (setting [11]), the papp_a_to_b_mean was 1.58 ×10⁻⁶ cm/s. For the same compound, in data set [2] (setting [12]), the perc_recovery_a_to_b_mean is on record as 93.2%. Further, in the data set with HeLa-ACE2 cells (HeLa-ACE2 cytotoxicity), the CC50 is above 20 µM, the cc10 was above 20.0 µM, the perc_max_measured is 100.208% and the perc_min_measured was 90.498%. In addition, in data set [3], the clint turned out to be 120.0 µL/min/mg, the perc_remaining came to 13.0%, the t_half came to 13.9 min and the perc_remaining_no_cofactor turned out to be 98.0%. Further, the solubility_mean in data set [4] turned out to be 105 µM (≈ 47.4 µg/mL). In “LogD”, this compound returned a logd of 3.2. In data set [5] (setting [9]), this compound showed a clint of 87.0 µL/min/mg, a perc_remaining of 23.0% and a t_half of 19.1 min. For the same compound, the perc_remaining_no_cofactor in data set [5] (setting [10]) came out at 92.0%.
Consider `CCNC(=O)c1cc2c(N[C@H](c3ccc4c(c3)OCCO4)C(C)C)ncnc2[nH]1` (single isomer, unassigned) [ASAP-0013827], for which, in data set [1], the perc_max_measured was determined as 113.12%, the perc_min_measured worked out at 80.543%, the EC50 is above 20 µM and the concentration for an effect of 90% (EC90) was above 20 µM. The compound also registered a papp_a_to_b_mean in data set [2] (setting [6]) of 2.9 ×10⁻⁶ cm/s. Also, in data set [2] (setting [7]), the perc_recovery_a_to_b_mean was found to be 81.7%. In the data set on HeLa-ACE2 cells (HeLa-ACE2 cytotoxicity), the perc_max_measured is 106.128% and the perc_min_measured is 83.696%. Also, in data set [3], the clint is 1329.0 µL/min/mg, the perc_remaining is reported as 1.0%, the t_half was 1.3 min and the perc_remaining_no_cofactor is recorded as 97.0%. The solubility_mean in data set [4] came out at 13 µM (≈ 5.14 µg/mL). In the data set “LogD”, this compound had a logd of 3.6. Also, in data set [5] (setting [9]), the clint was determined as 72.0 µL/min/mg, the perc_remaining is on record as 29.0% and the t_half worked out at 23.2 min. In data set [5] (setting [10]), the perc_remaining_no_cofactor was found to be 92.0%.
As for `COc1ccc([C@@H](Cc2nnn[nH]2)NC(=O)c2ncnc3[nH]ccc23)cc1` [ASAP-0015384], the CC50 at 24 h in the data set “in vitro” was above 20 µM. Also, in data set [1], the perc_max_measured was 136.92%, the perc_min_measured is given as 93.837%, the concentration giving a half-maximal response (EC50) was above 20 µM and the concentration for an effect of 90% (EC90) was above 20 µM. In the data set with HeLa-ACE2 cells (HeLa-ACE2 cytotoxicity), this compound gave a half-maximal cytotoxic concentration (CC50) above 20 µM, a cc10 above 20.0 µM, a perc_max_measured of 99.805% and a perc_min_measured of 83.484%.

In general, CC50 refers to the concentration that lowers cell viability or growth by half. Read a low CC50 as harm at low concentration. One may read the EC50 as the concentration giving half of the maximal effect. By EC90 is commonly meant the concentration at which the effect reaches the 90% level.
